# Test system: MV-4-11 cells
# Experiment: Gene expression microarray analysis (Affymetrix PrimeView) and GSEA
# Assay type: cell-based, human
# Parameters: RFU PODN (11730768_x_at) / Fold change /veh PODN (11730768_x_at) / RFU LINC00158 (11744669_a_at) / Fold change /veh LINC00158 (11744669_a_at) / RFU DUSP10 (11751237_a_at) / Fold change /veh DUSP10 (11751237_a_at) / RFU ID3 (11757404_x_at) / Fold change /veh ID3 (11757404_x_at) / RFU PLEKHG5 (11737974_s_at) / Fold change /veh PLEKHG5 (11737974_s_at) / RFU LRRC4B (11730491_at) / Fold change /veh LRRC4B (11730491_at) / RFU GIMAP4 (11747438_a_at) / Fold change /veh GIMAP4 (11747438_a_at) / RFU KRT8 (11758183_x_at) / Fold change /veh KRT8 (11758183_x_at) / RFU CNN1 (11734310_a_at) / Fold change /veh CNN1 (11734310_a_at) / RFU VPS37D (11726825_at) / Fold change /veh VPS37D (11726825_at) / RFU C10orf10 (11716522_x_at) / Fold change /veh C10orf10 (11716522_x_at) / RFU KIR2DL2 /// KIR2DL4 /// KIR2DL5A /// KIR2DL5B /// KIR2DS1 /// KIR2DS2 /// KIR2DS3 /// KIR2DS4 /// KIR3DL3 /// KIR3DL3 /// KIR3DS1 (11738374_at) / Fold change /veh KIR2DL2 /// KIR2DL4 /// KIR2DL5A /// KIR2DL5B /// KIR2DS1 /// KIR2DS2 /// KIR2DS3 /// KIR2DS4 /// KIR3DL3 /// KIR3DL3 /// KIR3DS1 (11738374_at) / RFU C1QL1 (11718748_at) / Fold change /veh C1QL1 (11718748_at) / RFU TMPRSS4 (11747572_a_at) / Fold change /veh TMPRSS4 (11747572_a_at) / RFU HAMP (11756126_x_at) / Fold change /veh HAMP (11756126_x_at) / RFU RNFT2 (11725882_a_at) / Fold change /veh RNFT2 (11725882_a_at) / RFU NR4A2 (11747474_a_at) / Fold change /veh NR4A2 (11747474_a_at) / RFU ABCC12 (11746883_a_at) / Fold change /veh ABCC12 (11746883_a_at) / RFU TMEM136 (11760407_x_at) / Fold change /veh TMEM136 (11760407_x_at) / RFU CLDN22 /// WWC2 (11732394_at) / Fold change /veh CLDN22 /// WWC2 (11732394_at) / RFU HLA-DPB1 (11760878_x_at) / Fold change /veh HLA-DPB1 (11760878_x_at) / RFU SPINT1 (11716480_a_at) / Fold change /veh SPINT1 (11716480_a_at) / RFU GAP43 (11754022_s_at) / Fold change /veh GAP43 (11754022_s_at) / RFU A4GNT (11735810_at) / Fold change /veh A4GNT (11735810_at) / RFU PRB3 (11715151_x_at) / Fold change /veh PRB3 (11715151_x_at) / RFU TUBB4B (11761932_at) / Fold change /veh TUBB4B (11761932_at) / RFU CAPN14 (11732068_a_at) / Fold change /veh CAPN14 (11732068_a_at) / RFU TMCC2 (11721928_a_at) / Fold change /veh TMCC2 (11721928_a_at) / RFU IRGQ (11745062_a_at) / Fold change /veh IRGQ (11745062_a_at) / RFU FAM174B (11720279_a_at) / Fold change /veh FAM174B (11720279_a_at) / RFU TMPRSS4 (11748680_a_at) / Fold change /veh TMPRSS4 (11748680_a_at) / RFU FAM212B (11763350_a_at) / Fold change /veh FAM212B (11763350_a_at) / RFU PLEKHG5 (11743358_a_at) / Fold change /veh PLEKHG5 (11743358_a_at) / RFU ZSCAN30 (11745921_a_at) / Fold change /veh ZSCAN30 (11745921_a_at) / RFU CMKLR1 (11741424_a_at) / Fold change /veh CMKLR1 (11741424_a_at) / RFU LOC101060620 /// MAPK8IP1 (11723275_at) / Fold change /veh LOC101060620 /// MAPK8IP1 (11723275_at) / RFU SPTSSB (11747773_x_at) / Fold change /veh SPTSSB (11747773_x_at) / RFU PRSS12 (11739890_at) / Fold change /veh PRSS12 (11739890_at) / RFU BIN1 (11741810_x_at) / Fold change /veh BIN1 (11741810_x_at) / RFU WNT11 (11732464_a_at) / Fold change /veh WNT11 (11732464_a_at) / RFU C10orf10 (11716521_a_at) / Fold change /veh C10orf10 (11716521_a_at) / RFU C5orf56 (11738089_at) / Fold change /veh C5orf56 (11738089_at) / RFU CYB561 (11721691_x_at) / Fold change /veh CYB561 (11721691_x_at) / RFU ANKRD19P (11752326_a_at) / Fold change /veh ANKRD19P (11752326_a_at) / RFU OR2T12 /// OR2T33 /// OR2T8 (11738714_s_at) / Fold change /veh OR2T12 /// OR2T33 /// OR2T8 (11738714_s_at) / RFU VCAN (11748164_a_at) / Fold change /veh VCAN (11748164_a_at) / RFU JSRP1 (11732532_at) / Fold change /veh JSRP1 (11732532_at) / RFU KRTAP10-11 (11738290_x_at) / Fold change /veh KRTAP10-11 (11738290_x_at) / RFU MYO3A (11730013_a_at) / Fold change /veh MYO3A (11730013_a_at) / RFU EBF3 (11725865_a_at) / Fold change /veh EBF3 (11725865_a_at) / RFU CAMK2N1 (11719241_x_at) / Fold change /veh CAMK2N1 (11719241_x_at) / RFU C5orf56 (11738088_a_at) / Fold change /veh C5orf56 (11738088_a_at) / RFU OLFML3 (11715873_a_at) / Fold change /veh OLFML3 (11715873_a_at) / RFU LOC100653217 /// NTM (11731650_a_at) / Fold change /veh LOC100653217 /// NTM (11731650_a_at) / RFU MAPK11 (11762145_a_at) / Fold change /veh MAPK11 (11762145_a_at) / RFU FIZ1 (11724087_x_at) / Fold change /veh FIZ1 (11724087_x_at) / RFU OASL (11726364_x_at) / Fold change /veh OASL (11726364_x_at) / RFU SOX15 (11748057_x_at) / Fold change /veh SOX15 (11748057_x_at) / RFU CD79A (11719716_a_at) / Fold change /veh CD79A (11719716_a_at) / RFU HIST1H1D (11736915_at) / Fold change /veh HIST1H1D (11736915_at) / RFU CASKIN2 (11723855_a_at) / Fold change /veh CASKIN2 (11723855_a_at) / RFU LOC730098 (11760151_x_at) / Fold change /veh LOC730098 (11760151_x_at) / RFU OR4N2 (11742367_at) / Fold change /veh OR4N2 (11742367_at) / RFU PRRT2 (11749266_a_at) / Fold change /veh PRRT2 (11749266_a_at) / RFU SNX32 (11753110_a_at) / Fold change /veh SNX32 (11753110_a_at) / RFU CDHR5 (11726645_a_at) / Fold change /veh CDHR5 (11726645_a_at) / RFU RCAN1 (11760418_a_at) / Fold change /veh RCAN1 (11760418_a_at) / RFU FAM167A (11723789_a_at) / Fold change /veh FAM167A (11723789_a_at) / RFU FAM26E (11764081_at) / Fold change /veh FAM26E (11764081_at) / RFU ISYNA1 (11749810_s_at) / Fold change /veh ISYNA1 (11749810_s_at) / RFU ACY1 (11761880_at) / Fold change /veh ACY1 (11761880_at) / RFU 11764098_at / Fold change /veh 11764098_at / RFU SAMD14 (11745864_x_at) / Fold change /veh SAMD14 (11745864_x_at) / RFU NPB (11741838_a_at) / Fold change /veh NPB (11741838_a_at) / RFU TMPRSS6 (11731388_a_at) / Fold change /veh TMPRSS6 (11731388_a_at) / RFU KRTAP10-2 (11738614_at) / Fold change /veh KRTAP10-2 (11738614_at) / RFU ARHGAP8 /// PRR5-ARHGAP8 (11727945_x_at) / Fold change /veh ARHGAP8 /// PRR5-ARHGAP8 (11727945_x_at) / RFU KRTAP5-7 /// NADSYN1 (11734609_at) / Fold change /veh KRTAP5-7 /// NADSYN1 (11734609_at) / RFU RASL12 (11751679_a_at) / Fold change /veh RASL12 (11751679_a_at) / RFU CDKN2B (11736163_a_at) / Fold change /veh CDKN2B (11736163_a_at) / RFU PRF1 (11729649_at) / Fold change /veh PRF1 (11729649_at) / RFU, ZNF638 /// ZNF638-IT1 / Fold change vs veh, ZNF638 /// ZNF638-IT1 / RFU, PANK3 / Fold change vs veh, PANK3 / RFU, SH3YL1 / Fold change vs veh, SH3YL1 / RFU, ZEB2 / Fold change vs veh, ZEB2 / RFU, NRIP1 / Fold change vs veh, NRIP1 / RFU, PTTG1IP / Fold change vs veh, PTTG1IP / RFU, CAPN2 / Fold change vs veh, CAPN2 / RFU, MED14 / Fold change vs veh, MED14 / RFU, SNORA58 / Fold change vs veh, SNORA58 / RFU, C1orf63 / Fold change vs veh, C1orf63 / RFU, LRRFIP1 / Fold change vs veh, LRRFIP1 / RFU, NDUFAF7 / Fold change vs veh, NDUFAF7 / RFU, SLC12A2 / Fold change vs veh, SLC12A2 / RFU, IBTK / Fold change vs veh, IBTK / RFU, ESF1 / Fold change vs veh, ESF1 / Fold change vs veh, TMEM50B / RFU, TAOK1 / Fold change vs veh, TAOK1 / RFU, ACBD3 / Fold change vs veh, ACBD3 / RFU, TMA16 / Fold change vs veh, TMA16 / RFU, RWDD3 / Fold change vs veh, RWDD3 / RFU, BCAT1 / Fold change vs veh, BCAT1 / RFU, EDEM3 / Fold change vs veh, EDEM3 / RFU, TMEM33 / Fold change vs veh, TMEM33 / RFU, WDR75 / Fold change vs veh, WDR75 / RFU, AHCTF1 / Fold change vs veh, AHCTF1 / RFU, TFRC / Fold change vs veh, TFRC / RFU, ZDHHC17 / Fold change vs veh, ZDHHC17 / RFU, NOM1 / Fold change vs veh, NOM1 / RFU, ARL8B / Fold change vs veh, ARL8B / RFU, ZBTB11 / Fold change vs veh, ZBTB11 / RFU, TAMM41 / Fold change vs veh, TAMM41 / RFU, KIAA1704 /// LOC100996395 / Fold change vs veh, KIAA1704 /// LOC100996395 / RFU, ING1 / Fold change vs veh, ING1 / RFU, TRMT61B / Fold change vs veh, TRMT61B / RFU, FUBP3 / Fold change vs veh, FUBP3 / RFU, TP53 / Fold change vs veh, TP53 / RFU, TNKS2 / Fold change vs veh, TNKS2 / RFU, ZFP14 / Fold change vs veh, ZFP14 / RFU, ACTR2 / Fold change vs veh, ACTR2 / RFU, PPP3R1 / Fold change vs veh, PPP3R1 / RFU, PIK3R1 / Fold change vs veh, PIK3R1 / RFU, HNRNPA1 / Fold change vs veh, HNRNPA1 / RFU, RNF170 / Fold change vs veh, RNF170 / RFU, ZNF28 / Fold change vs veh, ZNF28 / RFU, RNGTT / Fold change vs veh, RNGTT / RFU, OGT / Fold change vs veh, OGT / RFU, BRD1 / Fold change vs veh, BRD1 / RFU, MARS / Fold change vs veh, MARS / RFU, ZNF655 / Fold change vs veh, ZNF655 / RFU, FAHD1 / Fold change vs veh, FAHD1 / RFU, BDP1 / Fold change vs veh, BDP1 / RFU, LRRCC1 / Fold change vs veh, LRRCC1 / RFU, ARID1A / Fold change vs veh, ARID1A / RFU, ZNF146 / Fold change vs veh, ZNF146 / RFU, ZNF330 / Fold change vs veh, ZNF330 / RFU, GPN3 / Fold change vs veh, GPN3 / RFU, C9orf123 / Fold change vs veh, C9orf123 / RFU, N4BP2L2 / Fold change vs veh, N4BP2L2 / RFU, ARFIP1 / Fold change vs veh, ARFIP1 / RFU, FAM179B / Fold change vs veh, FAM179B / RFU, BCL10 / Fold change vs veh, BCL10 / RFU, UHRF1BP1L / Fold change vs veh, UHRF1BP1L / RFU, BET1 / Fold change vs veh, BET1 / RFU, CNOT2 / Fold change vs veh, CNOT2 / RFU, ZNF268 / Fold change vs veh, ZNF268 / Fold change vs veh, ZNF507 / RFU, DGCR2 / Fold change vs veh, DGCR2 / RFU, WDSUB1 / Fold change vs veh, WDSUB1 / Fold change vs veh, HSP90B1 /// MIR3652 / RFU, ADSS / Fold change vs veh, ADSS / RFU, GK / Fold change vs veh, GK / RFU, ZNF148 / Fold change vs veh, ZNF148 / RFU, TAF9 / Fold change vs veh, TAF9 / RFU, SLC1A5 / Fold change vs veh, SLC1A5 / RFU, SLMO2 / Fold change vs veh, SLMO2 / RFU, ABCC4 / Fold change vs veh, ABCC4 / RFU, LOC101060439 /// RAP1B / Fold change vs veh, LOC101060439 /// RAP1B / RFU, RFX7 / Fold change vs veh, RFX7 / RFU, GTPBP10 / Fold change vs veh, GTPBP10 / RFU, CNEP1R1 / Fold change vs veh, CNEP1R1 / RFU, BIVM-ERCC5 /// ERCC5 / Fold change vs veh, BIVM-ERCC5 /// ERCC5 / RFU, ILF3 / Fold change vs veh, ILF3 / RFU 11762660_at / Fold change /veh 11762660_at / RFU VCAN (11757783_s_at) / Fold change /veh VCAN (11757783_s_at) / RFU DDX43 (11728927_at) / Fold change /veh DDX43 (11728927_at) / RFU KRT8 (11758188_x_at) / Fold change /veh KRT8 (11758188_x_at) / RFU NKD1 (11759106_at) / Fold change /veh NKD1 (11759106_at) / RFU SRD5A1 (11742802_a_at) / Fold change /veh SRD5A1 (11742802_a_at) / RFU TPSAB1 /// TPSB2 (11721975_s_at) / Fold change /veh TPSAB1 /// TPSB2 (11721975_s_at) / RFU GSTM3 (11746129_a_at) / Fold change /veh GSTM3 (11746129_a_at) / RFU IL23R (11737362_x_at) / Fold change /veh IL23R (11737362_x_at) / RFU TMEM51 (11727254_a_at) / Fold change /veh TMEM51 (11727254_a_at) / RFU PIWIL2 (11732686_x_at) / Fold change /veh PIWIL2 (11732686_x_at) / RFU ORM1 (11744905_x_at) / Fold change /veh ORM1 (11744905_x_at) / RFU CCDC152 (11743942_at) / Fold change /veh CCDC152 (11743942_at) / RFU ECM1 (11717891_a_at) / Fold change /veh ECM1 (11717891_a_at) / RFU IL23R (11748794_a_at) / Fold change /veh IL23R (11748794_a_at) / RFU TNFAIP8L3 (11732012_x_at) / Fold change /veh TNFAIP8L3 (11732012_x_at) / RFU MBOAT4 (11741988_at) / Fold change /veh MBOAT4 (11741988_at) / RFU 11764193_at / Fold change /veh 11764193_at / RFU TMEM53 (11763286_at) / Fold change /veh TMEM53 (11763286_at) / RFU MAGEB2 (11727129_at) / Fold change /veh MAGEB2 (11727129_at) / RFU TMEM200A (11744735_a_at) / Fold change /veh TMEM200A (11744735_a_at) / RFU CCDC152 (11751479_a_at) / Fold change /veh CCDC152 (11751479_a_at) / RFU FAM211A (11726209_a_at) / Fold change /veh FAM211A (11726209_a_at) / RFU RGS16 (11746705_a_at) / Fold change /veh RGS16 (11746705_a_at) / RFU VCAN (11755009_s_at) / Fold change /veh VCAN (11755009_s_at) / RFU RHOB (11743442_s_at) / Fold change /veh RHOB (11743442_s_at) / RFU RGS16 (11720943_a_at) / Fold change /veh RGS16 (11720943_a_at) / RFU RGS16 (11720944_at) / Fold change /veh RGS16 (11720944_at) / RFU, VPS4B / Fold change vs veh, VPS4B / RFU, CREB1 / Fold change vs veh, CREB1 / RFU, DNAJC13 / Fold change vs veh, DNAJC13 / RFU, GNAQ / Fold change vs veh, GNAQ / RFU, CDK5R1 / Fold change vs veh, CDK5R1 / RFU, ZRANB3 / Fold change vs veh, ZRANB3 / RFU, CUL4A / Fold change vs veh, CUL4A / RFU, CCNY / Fold change vs veh, CCNY / RFU, UFL1 / Fold change vs veh, UFL1 / RFU, COG3 / Fold change vs veh, COG3 / RFU, DIAPH2 / Fold change vs veh, DIAPH2 / RFU, SKA2 / Fold change vs veh, SKA2 / RFU, AFF3 / Fold change vs veh, AFF3 / RFU, LMF1 / Fold change vs veh, LMF1 / RFU, IPO11 / Fold change vs veh, IPO11 / RFU, DFFB / Fold change vs veh, DFFB / RFU, FOXP1 / Fold change vs veh, FOXP1 / RFU, CARD8 / Fold change vs veh, CARD8 / RFU, STRN3 / Fold change vs veh, STRN3 / RFU, ADK / Fold change vs veh, ADK / RFU, RASSF2 / Fold change vs veh, RASSF2 / RFU, WIPF1 / Fold change vs veh, WIPF1 / RFU, LARP1B / Fold change vs veh, LARP1B / RFU, RASA1 / Fold change vs veh, RASA1 / RFU, RB1 / Fold change vs veh, RB1 / RFU, PPFIA1 / Fold change vs veh, PPFIA1 / RFU, MAT2A / Fold change vs veh, MAT2A / RFU, CCT5 / Fold change vs veh, CCT5 / RFU, WDR92 / Fold change vs veh, WDR92 / RFU, CUX1 / Fold change vs veh, CUX1 / RFU, TTC7A / Fold change vs veh, TTC7A / RFU, TMEM135 / Fold change vs veh, TMEM135 / RFU, DEPTOR / Fold change vs veh, DEPTOR / RFU, CPM / Fold change vs veh, CPM / RFU, DNAJB6 / Fold change vs veh, DNAJB6 / RFU, CACNA2D3 / Fold change vs veh, CACNA2D3 / RFU, DTX4 / Fold change vs veh, DTX4 / RFU, TFCP2 / Fold change vs veh, TFCP2 / RFU, GMCL1 /// GMCL1P1 / Fold change vs veh, GMCL1 /// GMCL1P1 / RFU, AEBP2 / Fold change vs veh, AEBP2 / RFU, SNHG1 /// SNORD22 /// SNORD25 /// SNORD26 /// SNORD27 /// SNORD28 /// SNORD29 /// SNORD31 / Fold change vs veh, SNHG1 /// SNORD22 /// SNORD25 /// SNORD26 /// SNORD27 /// SNORD28 /// SNORD29 /// SNORD31 / Fold change (Aza/veh), C12orf56 (ProbeSet 11735607_a_at) / Fold change (ACY-1035/veh), C12orf56 (ProbeSet 11735607_a_at) / Fold change (Aza/veh), FGFR1OP (ProbeSet 11751329_s_at) / Fold change (ACY-1035/veh), FGFR1OP (ProbeSet 11751329_s_at) / Fold change (Aza/veh), VPS36 (ProbeSet 11739960_a_at) / Fold change (ACY-1035/veh), VPS36 (ProbeSet 11739960_a_at) / RFU SYPL1 (11715823_x_at) / Fold change /veh SYPL1 (11715823_x_at) / RFU IGFBP7 (11715501_s_at) / Fold change /veh IGFBP7 (11715501_s_at) / RFU REEP3 (11722064_at) / Fold change /veh REEP3 (11722064_at) / RFU IGLL1 (11728026_x_at) / Fold change /veh IGLL1 (11728026_x_at): dose or concentration left out as unconfirmed
# Settings: ProbeSet 11723141_at; LIST B
smiles,measurement,value
Nc1ccc(-c2cccs2)cc1NC(=O)c1ccc2c(c1)cc(C1CC1)n2CCN1CCOCC1 [ACY-1035],"Fold change vs veh, ZBTB11",0.84
